# Results: ChEMBL document CHEMBL1135229, “Novel potent antagonists of human neuropeptide Y Y5 receptors. Part 3: 7-methoxy-1-hydroxy-1-substituted tetraline derivatives” (Bioorg Med Chem Lett, 2002)
# Biological target: T1, Neuropeptide Y receptor type 5 (Homo sapiens, UniProt Q15761)
# T1 sequence (Q15761 whole entry): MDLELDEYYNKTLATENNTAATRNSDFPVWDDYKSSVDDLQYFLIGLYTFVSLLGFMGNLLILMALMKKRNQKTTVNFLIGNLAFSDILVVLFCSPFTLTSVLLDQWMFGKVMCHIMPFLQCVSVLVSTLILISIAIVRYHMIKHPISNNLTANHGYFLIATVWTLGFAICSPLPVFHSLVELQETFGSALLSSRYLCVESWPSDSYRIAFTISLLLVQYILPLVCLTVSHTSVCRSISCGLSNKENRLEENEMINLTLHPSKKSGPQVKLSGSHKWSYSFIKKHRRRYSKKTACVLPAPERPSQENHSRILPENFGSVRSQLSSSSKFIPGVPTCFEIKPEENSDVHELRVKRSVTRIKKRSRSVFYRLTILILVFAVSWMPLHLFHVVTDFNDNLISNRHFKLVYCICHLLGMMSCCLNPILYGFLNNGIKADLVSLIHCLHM
# Assay: Inhibition of 125 I-PYY binding to human Neuropeptide Y receptor type 5
row,Compound,IC50
1,COc1ccc2c(c1)C(O)(CNCC1CCN(CCNS(=O)(=O)c3cccc4ccccc34)CC1)CCC2 (stereo not drawn),0.54 nM
2,COc1ccc2c(c1)C(O)(CNCCC1CCN(CCNS(=O)(=O)c3cccc4ccccc34)CC1)CCC2 (stereo not drawn),24 nM
3,COc1ccc2c(c1)C(O)(CNCC1CCN(CCNS(=O)(=O)c3cccc(Cl)c3C)CC1)CCC2 (stereo not drawn),11 nM
4,O=C(Nc1nccs1)C1CCN(C(=O)Cn2c(=O)sc3ccc(Cl)cc32)CC1 [FR-73966],53 nM
5,COc1ccc2c(c1)C(O)(CNCC1CCN(CCNS(=O)(=O)c3cccc4ccccc34)CC1)CC2 (stereo not drawn),66 nM
6,COc1ccc2c(c1)CC(O)(CNCC1CCN(CCNS(=O)(=O)c3cccc4ccccc34)CC1)CCC2 (stereo not drawn),56 nM
7,COc1ccc2c(c1)C(O)(CNCC1CCN(CCNS(=O)(=O)c3cccc(C)c3)CC1)CCC2 (stereo not drawn),13 nM

# Results, then the compound that gave them:
row,IC50,Compound
1,3.7 nM,COc1ccc2c(c1)CC(NCC1CCN(C(=O)CNS(=O)(=O)c3cccc4ccccc34)CC1)CCC2 (stereo not drawn)
2,28 nM,COc1ccc2c(c1)C(O)(CNCC1CCN(C(=O)Cn3c(=O)sc4ccc(Cl)cc43)CC1)CCC2 (stereo not drawn)
3,0.7 nM,COc1ccc2c(c1)CC(NCC1CCN(C(=O)Cn3c(=O)sc4ccc(Cl)cc43)CC1)CCC2 (stereo not drawn)
4,1.2 nM,COc1ccc2c(c1)CC(CNC(=O)C1CCN(C(=O)Cn3c(=O)sc4ccc(Cl)cc43)CC1)CCC2 (stereo not drawn)
5,1 nM,COc1ccc2c(c1)C(O)(CNC(=O)C1CCN(C(=O)Cn3c(=O)sc4ccc(Cl)cc43)CC1)CCC2 (stereo not drawn)

# Biological target: T2, Neuropeptide Y receptor type 1 (Homo sapiens, UniProt P25929)
# T2 sequence (P25929 whole entry): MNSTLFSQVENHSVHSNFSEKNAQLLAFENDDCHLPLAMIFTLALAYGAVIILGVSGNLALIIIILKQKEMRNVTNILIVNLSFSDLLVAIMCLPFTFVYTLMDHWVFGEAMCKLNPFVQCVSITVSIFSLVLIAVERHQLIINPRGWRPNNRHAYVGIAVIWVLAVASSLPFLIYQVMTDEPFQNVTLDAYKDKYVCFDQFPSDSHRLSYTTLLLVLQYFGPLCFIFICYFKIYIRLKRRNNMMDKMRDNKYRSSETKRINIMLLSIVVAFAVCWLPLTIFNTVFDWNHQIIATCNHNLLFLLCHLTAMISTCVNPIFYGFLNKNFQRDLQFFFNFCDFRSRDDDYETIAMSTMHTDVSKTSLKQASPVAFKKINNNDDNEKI
# Assay: Compound was evaluated for the inhibitory activity against human Neuropeptide Y receptor type 1
row,IC50,Compound
1,12000 nM,COc1ccc2c(c1)CC(NCC1CCN(C(=O)Cn3c(=O)sc4ccc(Cl)cc43)CC1)CCC2 (stereo not drawn)
